From patent US20090110718A1, “Derivatives of tiacumicin B as anti-cancer agents” (Echem Hightech Co., Ltd., priority 2007, published 2009) come the findings set out here.

Usually IC50 stands for the concentration needed to halve the response being measured.

Type in all cases: cell-based, human
The test system of one assay is MCF7 breast cancer cells. Description: Cell viability assay (MTT), MCF7. The settings on record: for IC50: 72 hrs treatment, 1 to 10 μM tested, MTT, ± SD, read-out: Observed IC50 for MCF7 breast cancer cells. On the procedure: (§1) Experiments were performed using different cancer cell-lines, which were supplied by the American Type Culture Collection (ATCC), Rockville, Md., USA, and maintained in the recommended culturing media. The detailed steps and condition for cell culture are described as the following: MCF7, human breast adenocarcinoma: Minimum essential medium (Eagle) with 2 mM L-glutamine and Earle's BSS adjusted to contain 1.5 g/L sodium bicarbonate, 0.1 mM non-essential amino acids and 1.0 mM sodium pyruvate and supplemented with 0.01 mg/ml insulin, 90%; fetal bovine serum, 10%. […] All test samples were dissolved in absolute ethanol and serial diluted to the testing concentrations. For blank sample, absoluted ethanol was used. The final organic solvent content for all cell assays were less than or equal to 0.1%. The cell viability assay was conducted by using the method described by J. Carmichael, et al in Cancer Research 47:936 (1987). All the cells were seeded into 96-well microtitre plates and incubated at 37° C. under 5% CO2 atmosphere. For MCF7, T-47D and WS1, 3000 cells/100 μl/well were used and for HeLa, 1000 cells/100 μl/well were used. […] After additional 72 hours of incubation at 37° C. under 5% CO2 atmosphere, the cell were then collected and evaluated using MTT assay to assess the cell viability by using the method mentioned above. […] Cultures containing 3000 cells per well were treated with 0, 1, 2.5, 5 and 10 μM (final concentration) of the test samples and the viable cells were counted after 72 hrs. […] In both FIG. 1 and FIG. 2, error bars are indicated the estimated standard deviation based on three experiments.

In assay [1] the test system is T-47D breast cancer cells. Kind of assay: Cell viability assay (MTT), T-47D. The settings on record: 72 hrs treatment, 1 to 10 μM tested, ± SD, read-out: Observed IC50 for T-47D breast cancer cells. As to the method:
as §1, with “media.” for “media. The detailed steps and condition for cell culture are described as the following: MCF7, human breast adenocarcinoma: Minimum essential medium (Eagle) with 2 mM L-glutamine and Earle's BSS adjusted to contain 1.5 g/L sodium bicarbonate, 0.1 mM non-essential amino acids and 1.0 mM sodium pyruvate and supplemented with 0.01 mg/ml insulin, 90%; fetal bovine serum, 10%.”

Assay [2] concerns HeLa cervical cancer cells. Description: Cell viability assay (MTT), HeLa. Particulars: for IC50: 72 hrs treatment, 1 to 10 μM tested, MTT, ± SD, read-out: Observed IC50 for HeLa cervial cancer cells. On the procedure: Experiments were performed using different cancer cell-lines, which were supplied by the American Type Culture Collection (ATCC), Rockville, Md., USA, and maintained in the recommended culturing media. The detailed steps and condition for cell culture are described as the following: HeLa, humen cervical adenocarcinoma: Minimum essential medium (Eagle) with 2 mM L-glutamine and Earle's BSS adjusted to contain 1.5 g/L sodium bicarbonate, 0.1 mM non-essential amino acids and 1.0 mM sodium pyruvate and supplemented with 0.01 mg/ml insulin, 90%; fetal bovine serum, 10%. […] All test samples were dissolved in absolute ethanol and serial diluted to the testing concentrations. For blank sample, absoluted ethanol was used. The final organic solvent content for all cell assays were less than or equal to 0.1%. The cell viability assay was conducted by using the method described by J. Carmichael, et al in Cancer Research 47:936 (1987). All the cells were seeded into 96-well microtitre plates and incubated at 37° C. under 5% CO2 atmosphere. For MCF7, T-47D and WS1, 3000 cells/100 μl/well were used and for HeLa, 1000 cells/100 μl/well were used. […] After additional 72 hours of incubation at 37° C. under 5% CO2 atmosphere, the cell were then collected and evaluated using MTT assay to assess the cell viability by using the method mentioned above. Error bars are indicated the estimated standard deviation based on three experiments.

As for `CCc1c(Cl)c(O)c(Cl)c(O)c1C(=O)O[C@@H]1[C@@H](O)[C@@H](OC)[C@@H](OC/C2=C\C=C\CC(O)/C(C)=C/C(CC)C(O[C@@H]3OC(C)(C)[C@H]4OC(c5ccccc5C)O[C@@H]4[C@@H]3OC(=O)C(C)C)/C(C)=C/C(C)=C/CC(C(C)O)OC2=O)O[C@H]1C` (some centres unmarked) [TB1, 2-methylbenzylidene acetal], the IC50 in the assay with MCF7 breast cancer cells was 7.06 ± 0.83 µM; in assay [1], 3.99 ± 0.58 µM; in assay [2], 5.88 ± 0.42 µM.

Take `CCc1c(Cl)c(O)c(Cl)c(O)c1C(=O)O[C@@H]1[C@@H](O)[C@@H](OC)[C@@H](OC/C2=C\C=C\CC(O)/C(C)=C/C(CC)C(O[C@@H]3OC(C)(C)[C@H]4OC(c5cccc(O)c5)O[C@@H]4[C@@H]3OC(=O)C(C)C)/C(C)=C/C(C)=C/CC(C(C)O)OC2=O)O[C@H]1C` (some centres unmarked) [TB2, 3-hydroxylbenzylidene acetal]: the figures for the IC50 (with MCF7 breast cancer cells; in assay [1]; in assay [2]) were 6.9 ± 0.36 µM, 4.24 ± 0.05 µM and 5.98 ± 0.22 µM, respectively. Further, in the assay on MCF7 breast cancer cells (statement in words), the “IC50 value compared with tamoxifen, MCF7” value is reported as “superior to that of tamoxifen”.

As to `CCc1c(Cl)c(O)c(Cl)c(O)c1C(=O)O[C@@H]1[C@@H](O)[C@@H](OC)[C@@H](OC/C2=C\C=C\CC(O)/C(C)=C/C(CC)C(O[C@@H]3OC(C)(C)[C@H]4OC(c5cccc(OC)c5)O[C@@H]4[C@@H]3OC(=O)C(C)C)/C(C)=C/C(C)=C/CC(C(C)O)OC2=O)O[C@H]1C` (some centres unmarked) [TB3, 3-methoxylbenzylidene acetal], the values for the IC50 (with MCF7 breast cancer cells; in assay [1]; in assay [2]) were 7.09 ± 0.54 µM, 4.99 ± 0.22 µM and 5.99 ± 0.45 µM, respectively.

Regarding `CCc1c(Cl)c(O)c(Cl)c(O)c1C(=O)O[C@@H]1[C@@H](O)[C@@H](OC)[C@@H](OC/C2=C\C=C\CC(O)/C(C)=C/C(CC)C(O[C@@H]3OC(C)(C)[C@H]4OC(c5ccccc5Cl)O[C@@H]4[C@@H]3OC(=O)C(C)C)/C(C)=C/C(C)=C/CC(C(C)O)OC2=O)O[C@H]1C` (some centres unmarked) [TB4, 2-chlorobenzylidene acetal], the IC50 amounted to 6.81 ± 0.01 µM in the assay on MCF7 breast cancer cells, 5.66 ± 0.62 µM in assay [1] and 5.69 ± 0.24 µM in assay [2].

Consider `CCc1c(Cl)c(O)c(Cl)c(O)c1C(=O)O[C@@H]1[C@@H](O)[C@@H](OC)[C@@H](OC/C2=C\C=C\CC(O)/C(C)=C/C(CC)C(O[C@@H]3OC(C)(C)[C@H]4OC(c5ccccc5C(F)(F)F)O[C@@H]4[C@@H]3OC(=O)C(C)C)/C(C)=C/C(C)=C/CC(C(C)O)OC2=O)O[C@H]1C` (some centres unmarked) [TB5, 2-trifluoromethylbenzylidene acetal], for which the half-inhibitory concentration (IC50) was determined as 5.95 ± 0.46 µM with MCF7 breast cancer cells, 4.66 ± 0.57 µM in assay [1] and 5.6 ± 0.37 µM in assay [2].

Take `CCc1c(Cl)c(O)c(Cl)c(O)c1C(=O)O[C@@H]1[C@@H](O)[C@@H](OC)[C@@H](OC/C2=C\C=C\CC(O)/C(C)=C/C(CC)C(O[C@@H]3OC(C)(C)[C@H]4OC(c5ccc(N(CC)CC)cc5)O[C@@H]4[C@@H]3OC(=O)C(C)C)/C(C)=C/C(C)=C/CC(C(C)O)OC2=O)O[C@H]1C` (some centres unmarked) [TB6, 4-N,N-diethylaminobenzylidene acetal]: the IC50 in the assay with MCF7 breast cancer cells came out at 5.98 ± 0.54 µM; in assay [1] it was 4.77 ± 0.51 µM; in assay [2] it was 5.56 ± 0.13 µM. Also, the “IC50 value compared with tamoxifen, HeLa” value in assay [2] (statement in words) is on record as “superior to that of tanoxifen”.

`CCc1c(Cl)c(O)c(Cl)c(O)c1C(=O)O[C@@H]1[C@@H](O)[C@@H](OC)[C@@H](OC/C2=C\C=C\CC(O)/C(C)=C/C(CC)C(O[C@@H]3OC(C)(C)[C@H]4OC(c5ccc(N(CC)CC)cc5OC)O[C@@H]4[C@@H]3OC(=O)C(C)C)/C(C)=C/C(C)=C/CC(C(C)O)OC2=O)O[C@H]1C` (some centres unmarked) [TB7, 4-N,N-diethylamino-2-methoxybenzylidene acetal]: the values for the IC50 (in the assay with MCF7 breast cancer cells; in assay [1]; in assay [2]) were 6.19 ± 0.68 µM, 4.8 ± 0.46 µM and 5.3 ± 0.49 µM, respectively.

With `CCc1c(Cl)c(O)c(Cl)c(O)c1C(=O)O[C@@H]1[C@@H](O)[C@@H](OC)[C@@H](OC/C2=C\C=C\CC(O)/C(C)=C/C(CC)C(O[C@@H]3OC(C)(C)[C@H]4OC(c5cc(C(C)(C)C)c(O)c(C(C)(C)C)c5)O[C@@H]4[C@@H]3OC(=O)C(C)C)/C(C)=C/C(C)=C/CC(C(C)O)OC2=O)O[C@H]1C` (some centres unmarked) [TB8, 4,5-tert-dibutyl-4-hydroxybenzylidene acetal], the 50% inhibitory concentration (IC50) with MCF7 breast cancer cells came out at 5.78 ± 0.81 µM; in assay [1], 4.04 ± 1.09 µM; in assay [2] it was 5.76 ± 0.32 µM.

On to “tiacumicin B [tiacumicin B (TB), reference compound]”, for which the figures for the IC50 (with MCF7 breast cancer cells; in assay [1]; in assay [2]) were 8.39 ± 1 µM, 5.56 ± 0.57 µM and 8.54 ± 1.03 µM, respectively.
